Experimental data as given in patent publication US7338778B2, “Luminescent method for determining cell oxygen consumption” (Becton, Dickinson and Company, priority 1991, dated 2008).
Converted amounts (≈) assume the structure as drawn.

How the values were obtained:
Format in all cases: cell-based
E. coli (ATCC #11775) = assay: Effect of open and closed systems on oxygen measurements with cefuroxime (Example 11); settings: 4 and 8 ug/ml, 5 hours, 37° C.
Protocol: A 96 well indicator microtiter tray was produced substantially as in Example 1. Duplicate wells in the tray were supplemented with the antibiotic cefuroxime in the concentration range of 0.25 to 32 ug/ml. One hundred and fifty microliters of a suspension of E. coli (ATCC #11775) was added to the wells to yield about 3×10^7 CFU/ml. One of each duplicate well was overlaid with mineral oil to inhibit diffusion of oxygen into the wells, the other duplicate was left open to the air. […] This difference is due, presumably to the time lag needed for the antibiotic to affect the organism; it is believed that during this time the oxygen is brought to an artificially low level by the ongoing metabolic activity of the organisms.

[1] = tested on: Ps. aeruginosa (BDMS Culture collection #N111); assay: Visual reading of indicator tray fluorescence without a fluorometer (Example 13); settings: 1×10^7 CFU/ml, 4 hours at 37° C., UV transilluminator
Protocol: (§1) The trays were incubated for 4 hours at 37° C. and subsequently placed on the stage of an ultraviolet transilluminator (#TX-365A, Spectronics Corp., Westbury, N.Y.) which served as an excitation source.

E. coli (ATCC #25922) [2] = assay: as above; settings: E. coli #25922, 1×10^7 CFU/ml, 4 hours at 37° C., UV transilluminator
Protocol: as §1

[3] = tested on: Ps. aeruginosa (BDMS Culture collection #N111); assay: Overnight microdilution antimicrobial susceptibility test (reference MIC); settings: Pseudomonas aeruginosa
E. coli (ATCC #25922) [4] = assay: Effect of antibiotics on oxygen consumption of E. coli, Ru(BiPy)3Cl2 indicator tray (Example 9); settings: for Relative Fluorescence at 4 hrs.: 1×10^7 CFU/ml, 37° C.
Protocol: A 96 well Microtiter tray was produced essentially as in Example 1, except that tris-(2,2′ bipyridyl)-ruthenium (II) chloride hexahydrate (Aldrich Chemical Company, Milwaukee, Wis.) [Ru(BiPy)3Cl2] was substituted for Ru(DPP)3Cl2 in the silicone mixture. A second tray containing 9,10-diphenyl anthracene (DPA) was also prepared. All wells were charged with 150 ul of 1×10^7 CFU/ml E. coli (ATCC #25922) in broth. Table 3 lists the results at 0, 1, 2, 3, and 4 hours after addition of organisms.
(§2) A 0.5 McFarland suspension of E. coli (ATCC #25922) in Broth A (see Example 1) was prepared using an A-Just nephelometer. […] The trays were incubated at 37° C. for 4 hours and their fluorescence measured in a Fluoroskan II fluorometer.

E. coli (ATCC #25922) [5] = assay: Effect of antibiotics on E. coli, Ru(DPP)3Cl2 indicator tray (Example 8); settings: for Relative Fluorescence at 4 hrs.: 1×10^7 CFU/ml, 37° C.
Protocol: as §2
The fluorescent compound tris 4,7-diphenyl-1,10-phenanthroline ruthenium (II) chloride (Ru(DPP)3Cl2) was synthesized using the procedure of Watts and Crosby (J. Am.Chem. Soc. 93, 3184(1971)). A total of 3.6 mg of the compound was dissolved in 2.0 ml dimethyl sulfoxide (D-5879, Sigma Chemical, St. Louis, Mo.) and the resultant solution was then added slowly, with stirring, to 1300 ml silicone rubber forming solution (Water Based Emulsion #3-5024, Dow Corning, Midland, Mich.). A 35 microliter aliquot of the mixture was subsequently dispensed into each well of a 96 well, flat bottom, white microtiter tray (#011-010-7901, Dynatech, Chantilly, Va.), and the system was subsequently cured overnight in a low humidity (less than 25% RH), 60° C. incubator. After curing, the trays were washed by either soaking or by filling and emptying each well several times with each of the following reagents; a) absolute ethanol, b) 0.1 M phosphate buffer pH 7.2, c) hot distilled water (about 45° C.) and d) ambient temperature distilled water.

E. coli (ATCC #25922) [6] = assay: Effect of antibiotics on oxygen consumption of E. coli, DPA indicator tray (Example 10); settings: for Relative Fluorescence at 4 hrs.: 1×10^7 CFU/ml, 37° C.
E. coli (ATCC #25922) [7] = assay: Overnight microdilution antimicrobial susceptibility test (reference MIC); settings: Escherichia coli, ATCC25922; E. coli #25922, overnight microdilution
[8] = all concentrations (0.5 to 8 ug/ml), 4 hours

CO/N=C(\C(=O)N[C@@H]1C(=O)N2C(C(=O)O)=C(COC(N)=O)CS[C@H]12)c1ccco1 [Cefuroxime, cefuroxime]
effect on oxygen consumption by fluorescence as percent of growth control (E. coli (ATCC #11775); closed system overlaid with mineral oil): did not show an effect on oxygen consumption
susceptibility of organism by fluorescence as percent of growth control (E. coli (ATCC #11775); wells with no mineral oil (open to air)): sensitive
MIC Visual (lowest concentration of antibiotic to significantly lower the fluorescent emissions) [1]: >64 µg/mL
MIC Visual (lowest concentration of antibiotic to significantly lower the fluorescent emissions) (E. coli (ATCC #25922) [2]): 16 µg/mL
MIC [3]: > 64 µg/mL
susceptibility of E. coli by fluorescence counts (E. coli (ATCC #25922) [4]; [8]): resistant
Relative Fluorescence at 4 hrs. (E. coli (ATCC #25922) [4]; antibiotic 0.5 ug/mL): 1155
Relative Fluorescence at 4 hrs. (E. coli (ATCC #25922) [4]; antibiotic 1 ug/mL): 1539
Relative Fluorescence at 4 hrs. (E. coli (ATCC #25922) [4]; antibiotic 2 ug/mL): 1183
Relative Fluorescence at 4 hrs. (E. coli (ATCC #25922) [4]; antibiotic 4 ug/mL): 1170
Relative Fluorescence at 4 hrs. (E. coli (ATCC #25922) [4]; antibiotic 8 ug/mL): 1194
susceptibility of E. coli by fluorescence counts (E. coli (ATCC #25922) [5]; [8]): resistant
Relative Fluorescence at 4 hrs. (E. coli (ATCC #25922) [5]; antibiotic 0.5 ug/mL): 7902
Relative Fluorescence at 4 hrs. (E. coli (ATCC #25922) [5]; antibiotic 1 ug/mL): 7983
Relative Fluorescence at 4 hrs. (E. coli (ATCC #25922) [5]; antibiotic 2 ug/mL): 7161
Relative Fluorescence at 4 hrs. (E. coli (ATCC #25922) [5]; antibiotic 4 ug/mL): 7598
Relative Fluorescence at 4 hrs. (E. coli (ATCC #25922) [5]; antibiotic 8 ug/mL): 6469
susceptibility of E. coli by fluorescence counts (E. coli (ATCC #25922) [6]; [8]): resistant
Relative Fluorescence at 4 hrs. (E. coli (ATCC #25922) [6]; antibiotic 0.5 ug/mL): 183
Relative Fluorescence at 4 hrs. (E. coli (ATCC #25922) [6]; antibiotic 1 ug/mL): 197
Relative Fluorescence at 4 hrs. (E. coli (ATCC #25922) [6]; antibiotic 2 ug/mL): 195
Relative Fluorescence at 4 hrs. (E. coli (ATCC #25922) [6]; antibiotic 4 ug/mL): 160
Relative Fluorescence at 4 hrs. (E. coli (ATCC #25922) [6]; antibiotic 8 ug/mL): 161
MIC (E. coli (ATCC #25922) [7]): 8 µg/mL (≈ 18.9 µM)
